Where two headings read alike, the source gives them in different places.
Columns and labels:
OCI-AML3 tumors = conditions: established OCI-AML3 tumors, NSG mice, 4 weeks; Azacitidine 2 mg/kg ip QD × 7; Compound A1 30 mg/kg po QD × 28
Method: For survival assessment, results were plotted as the percentage survival against days post tumor implant. Negative clinical signs and/or ≥20% body weight loss was used as a surrogate endpoint for death. Median survival was determined utilizing Kaplan-Meier survival analysis. The percent increased life span (ILS) was calculated as: ((median survival day of treated group—median survival day of control group)/median survival day of control group)×100. Animals failing to reach the surrogate endpoint due to adverse clinical signs (such as ulcerated tumors, body weight loss, etc.) or death unrelated to treatment were censored for the survival assessment.

MOLM-13 tumors [1] = conditions: established MOLM-13 tumors, NSG mice, 4 weeks; Azacitidine 2 mg/kg ip QD × 7; Compound A1 10 mg/kg po QD × 28
Method: 11) Efficacy of Menin-MLL Inhibitor in Combination with Azacitidine, in MOLM-13 (KMT2A-r) IV Model in NSG Mice
Each mouse received an injection of 1×10^5 MOLM-13 cells, and all other parameters were conducted as described for experiment (10).

[2] = Mouse PK (in vivo T1/2 and oral bioavailability); conditions: male, CD-1, mouse, in vivo, fasted male CD-1 mice, formulating agent: A HP-β-CD, A3 Pyrogen free water
Method: 3) Mouse PK (In Vivo T1/2 and Oral Bioavailability)
In vivo pharmacokinetics (PK) were assessed in fasted male CD-1 mice (age 6-8 weeks) following a single intravenous (IV, 0.5 or 1.0 mg/kg administered at 2.5 ml/kg) or oral (PO, 5 mg/kg administered at 10 ml solution/kg) dose of test article formulated in a 20% (w:vol) HP-β-CD solution or in Pyrogen free water.
Plasma and/or whole blood samples were collected from the dorsal metatarsal vein at desired timepoints via serial capillary microsampling (approx. 0.03 mL) using EDTA as an anticoagulant. Concentrations of compound in the plasma and blood samples were analyzed using a qualified LC-MS/MS method. In silico analysis of main pharmacokinetic parameters was performed using WinNonlin (Phoenix™, version 6.1) or similar software.)

hERG potassium channel = hERG potassium channel (Homo sapiens (Human), UniProt Q12809); assay: Membrane potassium current IKr in hERG transfected CHO cells (Protocol 1, QPatch); type: cell-based; conditions: Protocol 1, CHO cells
Method: Experiments were performed using CHO cells stably expressing the hERG potassium channel. Cells were grown at 37° C. and 5% CO2 in culture flasks in Ham's F12 Medium supplemented with 10% heat-inactivated fetal calf serum, hygromycin B (100 μg/ml) and geneticin (100 μg/ml). For use in the automated patch-clamp system QPatch (Sophion) cells were harvested to obtain cell suspension of single cells. […]
Patch-clamp experiments were performed in the voltage-clamp mode and whole-cell currents were recorded with an automated patch-clamp assay utilizing the QPatch system (Sophion). Current signals were amplified and digitized, stored and analyzed by using the QPatch assay software.
The holding potential was −80 mV. The hERG current (K^+-selective outward current) was determined as the maximal tail current at −40 mV after a 2 second depolarization to +60 mV. […] The effect of each concentration was determined after 5 min as an average current of 3 sequential voltage pulses. […]
Concentration/response relations were calculated by non-linear least-squares fits to the individual data points. The half-maximal inhibiting concentration (IC50) was calculated by the fitting routine.

[3] = Metabolic stability in mouse liver microsomes; type: in vitro ADME; conditions: liver microsomes, pH 7.4, 0.5 mg/mL microsomes protein, read-out: Mouse LM Clint
Method: 4) Metabolic Stability in Human/Mouse Liver Microsomes
The objective of this study is to measure in vitro metabolic stability of test compound(s) in human and mouse liver microsomes and provide quantitative information on the rate of metabolic turnover (i.e., determination of the apparent intrinsic clearance of test).
Test items were prepared at a stock concentration of 10 mM in DMSO. For determination of metabolic turnover, a final working solution was prepared by adding 2 μL of 10 mM DMSO stock solution for test compound or positive control compounds to 198 μL of acetonitrile (100 μM final concentration).
Incubations were performed as follows: First, liver microsomes were thawed on ice and a master solution containing liver microsomes in 100 mM PBS (phosphate-buffered saline) at pH 7.4 is prepared. Next, the liver microsomes solution was added to the incubation plates and 10 mM NADPH (Nicotinamide-adenine dinucleotide phosphate) was added (MW: 833.4 g/mol; Roche Diagnostics GmbH1, Germany. Dissolved in phosphate buffer (100 mmol/L, pH 7.4)). The mixture was mixed for 10 seconds and pre-warmed in the incubation plate at 37° C. for 10 minutes. The metabolic reaction was initiated with the addition of 5 μL of the 100 μM working solution for test compound or positive control compounds to incubation plate (final test item concentration=1 μM). The reaction final mixture should contain 1 mM NADPH, 0.5 mg/mL microsomes protein and 1 μM test compound or positive control compound in 100 mM PBS at pH 7.4. The percentage of organic solvent in incubation mixture is 1% with DMSO 0.02%.
The reaction was quenched by transferring 50 μL of the incubated mixture at selected time points into the quenching plate containing 200 μL of cold methanol. […]
All calculations were carried out using Microsoft Excel. The slope value, k, was determined by linear regression of the natural logarithm of the remaining percentage of the parent drug vs. incubation time curve.
The in vitro half-life (in vitro t1/2) was determined from the slope value: […]

MOLM-13 tumors [4] = assay: Efficacy of menin-MLL inhibitor in combination with gilteritinib in MOLM-13 (KMT2A-r) IV model; type: in vivo; conditions: established MOLM-13 tumors, NSG mice, 4 weeks; Gilteritinib 10 mg/kg po QD × 28; Compound A1 10 mg/kg po QD × 28
From the text: 12) Efficacy of Menin-MLL Inhibitor in Combination with Gilteritinib, in MOLM-13 (KMT2A-r) IV Model in NSG Mice

Chain of hERG potassium channel (Q12809 whole entry): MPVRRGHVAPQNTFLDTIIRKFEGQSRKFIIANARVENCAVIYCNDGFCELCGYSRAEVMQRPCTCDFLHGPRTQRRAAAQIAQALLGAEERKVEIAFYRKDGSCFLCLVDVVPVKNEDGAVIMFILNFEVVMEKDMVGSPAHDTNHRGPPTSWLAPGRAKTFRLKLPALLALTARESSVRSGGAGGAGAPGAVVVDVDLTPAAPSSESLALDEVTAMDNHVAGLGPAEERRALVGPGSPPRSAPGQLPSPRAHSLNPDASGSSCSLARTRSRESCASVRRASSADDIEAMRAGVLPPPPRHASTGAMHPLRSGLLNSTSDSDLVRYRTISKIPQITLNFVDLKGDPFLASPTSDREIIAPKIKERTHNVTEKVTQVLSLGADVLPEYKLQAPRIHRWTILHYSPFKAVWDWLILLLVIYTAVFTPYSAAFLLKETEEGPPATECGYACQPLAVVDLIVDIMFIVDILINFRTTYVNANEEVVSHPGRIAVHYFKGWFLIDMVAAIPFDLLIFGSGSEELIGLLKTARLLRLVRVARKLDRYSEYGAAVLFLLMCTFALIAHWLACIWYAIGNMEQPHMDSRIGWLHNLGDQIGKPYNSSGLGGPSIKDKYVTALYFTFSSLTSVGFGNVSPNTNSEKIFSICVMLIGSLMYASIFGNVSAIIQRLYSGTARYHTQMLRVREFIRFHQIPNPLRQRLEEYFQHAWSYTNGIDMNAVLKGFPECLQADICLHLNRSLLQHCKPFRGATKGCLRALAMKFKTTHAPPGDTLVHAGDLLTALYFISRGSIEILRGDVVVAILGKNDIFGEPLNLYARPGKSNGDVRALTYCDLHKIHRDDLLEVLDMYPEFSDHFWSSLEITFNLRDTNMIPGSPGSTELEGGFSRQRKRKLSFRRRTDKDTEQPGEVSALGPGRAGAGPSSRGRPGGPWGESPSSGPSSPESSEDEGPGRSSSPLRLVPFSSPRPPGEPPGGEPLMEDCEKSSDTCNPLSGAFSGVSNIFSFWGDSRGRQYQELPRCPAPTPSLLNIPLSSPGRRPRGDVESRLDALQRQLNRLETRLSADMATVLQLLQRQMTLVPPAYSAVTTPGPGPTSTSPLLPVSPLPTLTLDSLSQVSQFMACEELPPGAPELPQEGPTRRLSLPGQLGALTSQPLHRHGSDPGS

Nc1ncn([C@@H]2O[C@H](CO)[C@@H](O)[C@H]2O)c(=O)n1 [Azacitidine]
% ILS (OCI-AML3 tumors): *18% | % ILS (MOLM-13 tumors [1]): *35%

CCN(C(=O)c1cc(F)ccc1Oc1nncnc1N1CCC2(C1)CN([C@H](CCCN(C)CCOC)C(C)C)C2)C(C)C [Compound A, (R)-N-ethyl-5-fluoro-N-isopropyl-2-((5-(2-(6-((2-methoxyethyl) (methyl)amino)-2-methylhexan-3-yl)-2,6-diazaspiro[3.4]octan-6-yl)-1,2,4-triazin-6-yl)oxy) benzamide]
half-life ([2]; iv, 1 mg/kg, single IV 0.5 or 1.0 mg/kg): 402 min | bioavailability ([2]; po, 5 mg/kg, single PO 5 mg/kg): 17% | IC50 (hERG potassium channel): > 30.2 µM | microsomal CLint at 1 μM [3]: < 7.5 µL/min/mg

CCc1nc(C(N)=O)c(Nc2ccc(N3CCC(N4CCN(C)CC4)CC3)c(OC)c2)nc1NC1CCOCC1 [Gilteritinib, gilteritinib]
% ILS (MOLM-13 tumors [4]): *63%

Reference: patent US20240261292A1, “COMBINATION THERAPIES” (Janssen Pharmaceutica NV, priority 2021, published 2024)
